ChEMBL document CHEMBL4411299, “A class of novel tubulin polymerization inhibitors exert effective anti-tumor activity via mitotic catastrophe” (Eur J Med Chem, 2019)
Active and inactive are the calls of the source. No cut-off for these calls is given here.

Assays:
[1] = tested on: HeLa; experiment: Antitumor activity against human HeLa cells xenografted in nude mouse assessed as tumor weight at 5 mg/kg, iv administered every other day up to 20 days (reference value: 1.014 +/- 0.116g); type: functional
[2] = target: T1, Tubulin (Homo sapiens) (UniProt P68371+Q9H4B7+P0DPH7+P68366+Q13509+Q71U36+P04350+Q3ZCM7+P07437+P68363+Q9BQE3+Q6PEY2+Q13885+Q9BVA1+Q9BUF5); experiment: Inhibition of tubulin polymerization in human HeLa cells assessed as multipolar spindle formation at 0.02 after 12 hrs by DAPI staining-based confocal fluorescence microscopic analysis; type: cell-based
[3] = tested on: A2780; experiment: Antiproliferative activity against human A2780 cells after 48 hrs by MTT assay; type: functional; conditions: A2780, 48 h
[4] = Clearance in Sprague-Dawley rat at 1.5 mg/kg, iv administered as single dose by LC-MS/MS analysis; type: ADME, organism-based; conditions: in vivo
[5] = Apparent volume of distribution in female Sprague-Dawley rat at 1.5 mg/kg, iv administered as single dose by LC-MS/MS analysis; type: ADME, organism-based; conditions: in vivo, read-out: Vd(app)
[6] = tested on: HeLa; experiment: Antitumor activity against human HeLa cells xenografted in nude mouse assessed as tumor growth inhibition at 20 mg/kg, iv administered every other day up to 20 days relative to control; type: functional; conditions: 480 h, read-out: TGI
[7] = MRT (0 to infinity) in female Sprague-Dawley rat at 1.5 mg/kg, iv administered as single dose by LC-MS/MS analysis; type: ADME, organism-based; conditions: in vivo
[8] = Half life in male Sprague-Dawley rat at 1.5 mg/kg, iv administered as single dose by LC-MS/MS analysis; type: ADME, organism-based; conditions: in vivo
[9] = tested on: HeLa; experiment: Antitumor activity against human HeLa cells xenografted in nude mouse assessed as tumor growth inhibition administered intravenously every other day up to 20 days; type: functional, cell-based
[10] = target: T1, Tubulin (Homo sapiens); experiment: Inhibition of tubulin polymerization in human HeLa cells assessed as induction of multinuclear giant cells at 0.05 after 12 hrs by DAPI staining-based confocal fluorescence microscopic analysis; type: cell-based
[11] = AUC (0 to infinity) in male Sprague-Dawley rat at 1.5 mg/kg, iv administered as single dose by LC-MS/MS analysis; type: ADME, organism-based; design: dose 1.5 mg/kg, time infinity, route intravenous; conditions: in vivo
[12] = tested on: HepG2; experiment: Antiproliferative activity against human HepG2 cells after 48 hrs by MTT assay; type: functional; conditions: HepG2, 48 h
[13] = tested on: HeLa; experiment: Induction of apoptosis in human HeLa cells assessed as early apoptotic cells at 0.05 uM after 24 hrs by Annexin V-FITC/propidium iodide staining-based flow cytometric analysis (reference value: 3.65%); type: functional
[14] = Clearance in male Sprague-Dawley rat at 1.5 mg/kg, iv administered as single dose by LC-MS/MS analysis; type: ADME, organism-based; conditions: in vivo
[15] = Apparent volume of distribution in male Sprague-Dawley rat at 1.5 mg/kg, iv administered as single dose by LC-MS/MS analysis; type: ADME, organism-based; conditions: in vivo, read-out: Vd(app)
[16] = MRT (0 to infinity) in male Sprague-Dawley rat at 1.5 mg/kg, iv administered as single dose by LC-MS/MS analysis; type: ADME, organism-based; conditions: in vivo
[17] = MRT (0 to t) in male Sprague-Dawley rat at 1.5 mg/kg, iv administered as single dose by LC-MS/MS analysis; type: ADME, organism-based; conditions: in vivo
[18] = tested on: HeLa; experiment: Induction of apoptosis in human HeLa cells assessed as necrotic cells at 0.05 uM after 24 hrs by Annexin V-FITC/propidium iodide staining-based flow cytometric analysis (reference value: 0.05%); type: functional
[19] = tested on: HeLa; experiment: Induction of apoptosis in human HeLa cells assessed as early apoptotic cells at 0.1 uM after 24 hrs by Annexin V-FITC/propidium iodide staining-based flow cytometric analysis (reference value: 3.65%); type: functional
[20] = tested on: HeLa; experiment: Antitumor activity against human HeLa cells xenografted in nude mouse assessed as tumor weight at 10 mg/kg, iv administered every other day up to 20 days (reference value: 1.014 +/- 0.116g); type: functional
[21] = AUC (0 to t) in female Sprague-Dawley rat at 1.5 mg/kg, iv administered as single dose by LC-MS/MS analysis; type: ADME, organism-based; conditions: in vivo
[22] = Toxicity in mouse xenografted with human HeLa cells assessed as effect on body weight at 5 to 20 mg/kg, iv administered every other day up to 20 days; type: organism-based; conditions: in vivo, 480 h
[23] = Toxicity in mouse xenografted with human HeLa cells assessed as change in spleen weight at 5 to 20 mg/kg, iv administered every other day up to 20 days; type: organism-based; conditions: in vivo, 480 h
[24] = tested on: HeLa; experiment: Cell cycle arrest in human HeLa cells assessed as reduction in accumulation of cells at G1 phase up to 0.4 uM after 24 hrs by propidium iodide staining-based flow cytometric analysis; type: functional
[25] = AUC (0 to t) in Sprague-Dawley rat at 1.5 mg/kg, iv administered as single dose by LC-MS/MS analysis; type: ADME, organism-based; conditions: in vivo
[26] = tested on: HeLa; experiment: Induction of apoptosis in human HeLa cells assessed as late apoptotic cells at 0.1 uM after 24 hrs by Annexin V-FITC/propidium iodide staining-based flow cytometric analysis (reference value: 3.51%); type: functional
[27] = Half life in monkey liver microsomes at 5 uM in presence of NADPH regenerating system by LC-MS/MS analysis; type: ADME, Macaca mulatta, Microsome; conditions: rhesus monkey
[28] = Cmax in female Sprague-Dawley rat at 1.5 mg/kg, iv administered as single dose by LC-MS/MS analysis; type: ADME, organism-based; design: dose 1.5 mg/kg, route intravenous; conditions: in vivo
[29] = AUC (0 to infinity) in female Sprague-Dawley rat at 1.5 mg/kg, iv administered as single dose by LC-MS/MS analysis; type: ADME, organism-based; design: dose 1.5 mg/kg, time infinity, route intravenous; conditions: in vivo
[30] = Half life in Sprague-Dawley rat at 1.5 mg/kg, iv administered as single dose by LC-MS/MS analysis; type: ADME, organism-based; conditions: in vivo
[31] = tested on: HeLa; experiment: Induction of apoptosis in human HeLa cells assessed as viable cells at 0.1 uM after 24 hrs by Annexin V-FITC/propidium iodide staining-based flow cytometric analysis (reference value: 92.8%); type: functional; conditions: read-out: Activity
[32] = Clearance in female Sprague-Dawley rat at 1.5 mg/kg, iv administered as single dose by LC-MS/MS analysis; type: ADME, organism-based; conditions: in vivo
[33] = Half life in rat liver microsomes at 5 uM in presence of NADPH regenerating system by LC-MS/MS analysis; type: ADME, Microsome
[34] = AUC (0 to t) in male Sprague-Dawley rat at 1.5 mg/kg, iv administered as single dose by LC-MS/MS analysis; type: ADME, organism-based; conditions: in vivo
[35] = target: Tubulin (Sus scrofa) (UniProt P02554+P02550); experiment: (§1) Inhibition of porcine brain tubulin polymerization
Tubulin (Sus scrofa), sequence (P02550 whole entry, looked up): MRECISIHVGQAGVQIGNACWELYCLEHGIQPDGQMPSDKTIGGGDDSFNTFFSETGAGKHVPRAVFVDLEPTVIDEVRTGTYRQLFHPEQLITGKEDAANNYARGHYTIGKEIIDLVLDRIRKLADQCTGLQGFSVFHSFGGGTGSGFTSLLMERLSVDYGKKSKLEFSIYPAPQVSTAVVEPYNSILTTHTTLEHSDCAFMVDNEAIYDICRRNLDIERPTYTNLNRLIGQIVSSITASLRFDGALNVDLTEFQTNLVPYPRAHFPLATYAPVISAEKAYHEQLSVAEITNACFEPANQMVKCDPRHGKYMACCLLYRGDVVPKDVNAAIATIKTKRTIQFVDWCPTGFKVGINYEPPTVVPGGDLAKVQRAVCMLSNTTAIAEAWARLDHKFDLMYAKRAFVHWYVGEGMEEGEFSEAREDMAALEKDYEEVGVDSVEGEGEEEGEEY
Tubulin (Sus scrofa), sequence (P02554 whole entry, looked up): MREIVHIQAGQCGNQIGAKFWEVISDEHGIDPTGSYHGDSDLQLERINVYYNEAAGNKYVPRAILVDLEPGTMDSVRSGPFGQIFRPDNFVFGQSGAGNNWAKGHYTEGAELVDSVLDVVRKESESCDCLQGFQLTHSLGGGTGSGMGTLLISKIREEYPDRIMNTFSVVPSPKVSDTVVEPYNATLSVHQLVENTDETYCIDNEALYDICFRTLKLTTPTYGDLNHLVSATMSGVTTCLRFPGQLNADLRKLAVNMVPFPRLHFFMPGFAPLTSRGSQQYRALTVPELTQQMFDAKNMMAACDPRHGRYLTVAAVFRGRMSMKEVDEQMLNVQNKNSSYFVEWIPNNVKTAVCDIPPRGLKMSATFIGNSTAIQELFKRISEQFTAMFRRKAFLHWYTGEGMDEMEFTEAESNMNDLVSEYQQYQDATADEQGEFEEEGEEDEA

[36] = target: Tubulin (Sus scrofa, UniProt P02554+P02550); experiment: as §1
[37] = MRT (0 to t) in female Sprague-Dawley rat at 1.5 mg/kg, iv administered as single dose by LC-MS/MS analysis; type: ADME, organism-based; conditions: in vivo
[38] = Cmax in male Sprague-Dawley rat at 1.5 mg/kg, iv administered as single dose by LC-MS/MS analysis; type: ADME, organism-based; design: dose 1.5 mg/kg, route intravenous; conditions: in vivo
[39] = Half life in human liver microsomes at 5 uM in presence of NADPH regenerating system by LC-MS/MS analysis; type: ADME, Microsome

Activity [2]: Active
GI50 [3]: 600 nM
clearance [4]: 65.3 mL/min/kg
Vd [5]: 6.24 L/kg
MRT inf [7]: 70.8 min
half-life [8]: 52.2 min
Activity [10]: Active
AUC(0-inf) [11]: 491 ng·h/mL
GI50 [12]: 980 nM
clearance [14]: 51 mL/min/kg
Vd [15]: 3.82 L/kg
MRT inf [16]: 60 min
MRT last [17]: 51 min
AUC(0-t) [21]: 319 ng·h/mL
AUC(0-t) [25]: 397 ng·h/mL
half-life at 5 µM [27]: 123 min
Cmax [28]: 531 ng/mL
AUC(0-inf) [29]: 336 ng·h/mL
half-life [30]: 54 min
clearance [32]: 79.7 mL/min/kg
half-life at 5 µM [33]: 37 min
AUC(0-t) [34]: 475 ng·h/mL
inhibition [35]: Dose-dependent effect
IC50 [36]: 1490 nM
MRT last [37]: 57.6 min
Cmax [38]: 658 ng/mL
t1/2 [39]: 170.73 min
SMILES: COC(=O)N1N=C(c2cccc(C)c2)CC1c1cc(OC)c(OC)c(OC)c1 (centres undefined)
Activity [1]: 0.812 g
inhibition in vivo at 20 mg/kg [6]: 72.9%
TGI [9]: Dose-dependent effect
Activity [13]: 10.2%
Activity [18]: 0.46%
Activity [19]: 17.3%
Activity [20]: 0.631 g
Activity [22]: Non-Toxic
Activity [23]: Non-Toxic
Activity [24]: Active
Activity [26]: 6.03%
viability at 0.1 µM [31]: 75.8%
